Results on 33 molecules are retold here after patent publication US6858647B2, “Retinoid compounds suited for antibacterial applications” (Galderma Research & Development S.N.C., priority 2000, dated 2005).

The test system of experiment [1] is Staphylococcus aureus CIP52.1. The experiment in a line: Minimum inhibitory concentration (MIC), NCCLS dilution antimicrobial susceptibility test. Format: cell-based. From the text: The bacterium Staphylococcus aureus CIP52.1 may be used in order to determine for each test compound the minimum inhibitory concentration for the bacterium, or MIC, expressed in μM.
The technique employed to determine the minimum inhibitory concentration or MIC was that described in the publication entitled “National committee for clinical laboratory standards” Vol. 13, No. 25, December 1993; Methods for dilution antimicrobial susceptibility tests for bacteria that grow aerobically-third edition, approved standard”. This minimum inhibitory concentration gives an indication as to the bacteriostatic effect of the test compounds, i.e., the capacity of these compounds to stop the proliferation of the bacterium.
Each compound of the invention was tested at least three times. The average of the test results was calculated, along with the standard deviation. The reference compound used was gentamycin.
The technique employed to determine the MIC values was the same as that described in Example 1.
Each compound of the invention and each comparative example taken from the Pierre Fabre patent application No. FR-2,736,548 was tested at least three times. The mean of the test results was calculated, along with the standard deviation. The reference compound used was gentamycin.

For experiment [2], the system named is RAR receptor. The experiment in a line: Biological activity of RAR receptor antagonist / agonist type. Particulars: stated in words, no test described.
Where [3] appears, read: Staphylococcus aureus, CIP52, read-out: MIC RESULTS MEAN.
The mark [4] stands for this setting: Staphylococcus aureus, CIP52, Table II, Example 1, mean of at least three tests, bacteriostatic effect, read-out: MIC RESULTS MEAN.
The mark [5] stands for this setting: Table II, Example 1, mean of at least three tests, bacteriostatic effect, read-out: MIC RESULTS MEAN.

In brackets after ≈: the same amount, converted by molar mass. Like-named read-outs stand apart in the source and are kept apart here.

For orientation: MIC means the lowest concentration that inhibits growth of the organism.

For `CC1(C)CCC(C)(C)c2cc([Se]C#Cc3ccc(C(=O)O)c(O)c3)ccc21` [Compound 42, 2-Hydroxy-4-(5,5,8,8-tetramethyl-5,6,7,8-tetrahydronaphthalen-2-ylselanylethynyl)benzoic acid], in experiment [1] (setting [3]), the MIC turned out to be 5 µM (≈ 2.14 µg/mL).

`CC1(C)CCC(C)(C)c2cc(Oc3ccc4cc(C(N)=O)ccc4c3)ccc21` [Compound 40, 6-(5,5,8,8-Tetramethyl-5,6,7,8-tetrahydronaphthalen-2-yloxy)naphthalene-2-carboxylic acid amide]: the MIC in experiment [1] (setting [4]) was determined as 5 µM (≈ 1.87 µg/mL).

As for `O=C(O)c1ccc2cc(-c3cc(Br)c(O)c(C45CC6CC(CC(C6)C4)C5)c3)ccc2c1` [Compound 11, 6-(3-Adamantan-1-yl-5-bromo-4-hydroxyphenyl)-naphthalene-2-carboxylic acid], the MIC in experiment [1] (setting [4]) is 2.08 µM (≈ 0.993 µg/mL). Besides, the “biological activity at RAR receptor (antagonist or agonist type)” value (shortened to “biological activity at RAR receptor”) in experiment [2] is recorded as “RAR receptor agonist type”.

On to `OCc1ccc2cc(-c3ccc(O)c(C45CC6CC(CC(C6)C4)C5)c3)ccc2c1` [Compound 27, 6-[3-(1-Adamantyl)-4-hydroxyphenyl]-2-napthylmethanol], for which, in experiment [1] (setting [5]), the MIC came out at 3.33 µM (≈ 1.28 µg/mL).

For `COCCOCOc1ccc(C#Cc2ccc(C(=O)O)c(O)c2)cc1C12CC3CC(CC(C3)C1)C2` [Compound 18, 4-[3-Adamantan-1-yl-4-(2-methoxyethoxymethoxy)-phenylethynyl]-2-hydroxybenzoic acid], the MIC in experiment [1] (setting [4]) was 2.5 µM (≈ 1.19 µg/mL).

In the case of `COc1cc2c(cc1-c1cc(-c3ccc(C(=O)O)cc3)ccc1-c1ccccc1)C(C)(C)CCC2(C)C` [Compound 23, 2′-(3-Methoxy-5,5,8,8-tetramethyl-5,6,7,8-tetrahydronaphthalen-2-yl) [1,1′,4′,1″]terphenyl-4″-carboxylic acid], the MIC in experiment [1] (setting [5]) is reported as 2.50 µM (≈ 1.23 µg/mL).

Take `Cc1ccc(-c2ccccc2C=CC#Cc2ccc(C(=O)O)c(O)c2)cc1` [Compound 6, 2-Hydroxy-4-[4-(4′-methylbiphenyl-2-yl)but-3-en-1-ynyl]benzoic acid]: the MIC in experiment [1] (setting [4]) was determined as 1.25 µM (≈ 0.443 µg/mL).

`CCCCCCOc1ccc(C(=O)Nc2ccc(C(=O)O)cc2)cc1C12CC3CC(CC(C3)C1)C2` [Compound 26, 4-(3-Adamantan-1-yl-4-hexyloxybenzoylamino)benzoic acid]: the MIC in experiment [1] (setting [4]) came out at 3.33 µM (≈ 1.58 µg/mL).

Consider `CCCc1ccc(-c2ccccc2C=CC#Cc2ccc(C(=O)O)cc2)cc1` [Compound 21, 4-[4-(4′-Propylbiphenyl-2-yl)but-3-en-1-ynyl]benzoic acid], for which the MIC in experiment [1] (setting [4]) is 2.5 µM (≈ 0.916 µg/mL). Besides, in experiment [2], the “biological activity at RAR receptor” value was “RAR receptor antagonist type”.

For `CC(CO)COc1ccc(C#Cc2ccc(C(=O)O)cc2)cc1C12CC3CC(CC(C3)C1)C2` (stereo not shown) [Compound 19, 4-[[3-(1-Adamantyl)-4-[(2-methyl-3-hydroxypropyloxy)phenyl]ethynyl]]benzoic acid], the MIC in experiment [1] (setting [5]) is listed as 2.50 µM (≈ 1.11 µg/mL).

With `CCCOc1ccc(-c2ccc3c(c2)C(C)(C)CCC3(C)C)cc1-c1ccc(C(=O)O)cc1` [Compound 38, 2′-Propoxy-5′-(5,5,8,8-tetramethyl-5,6,7,8-tetrahydronaphthalen-2-yl)bipheny-1-4-carboxylic acid], the MIC in experiment [1] (setting [5]) was 4.16 µM (≈ 1.84 µg/mL).

Turning to `CC1(C)CCC(C)(C)c2cc3cc(-c4ccc(CO)c(O)c4)ccc3cc21` [Compound 20, 2-Hydroxymethyl-5-(5,5,8,8-tetramethyl-5,6,7,8-tetrahydroanthracen-2-yl)phenol], in experiment [1] (setting [4]), the MIC was determined as 2.5 µM (≈ 0.901 µg/mL).

Turning to `COCCOCOc1cc2ccc(-c3ccc(C(=O)O)c(O)c3)cc2cc1C12CC3CC(CC(C3)C1)C2` [Compound 30, 4-[6-Methoxyethoxymethoxy-7-(1-adamantyl)-2-naphthyl] salicylic acid], the MIC in experiment [1] (setting [4]) is 3.33 µM (≈ 1.67 µg/mL). Further, the “biological activity at RAR receptor” value in experiment [2] is recorded as “RAR receptor antagonist type”.

Consider `O=C(O)c1ccc2oc(-c3ccc(O)c(C45CC6CC(CC(C6)C4)C5)c3)cc2c1` [Compound 29, 2-(3-Adamantan-1-yl-4-hydroxyphenyl)benzofuran-5-carboxylic acid], for which, in experiment [1] (setting [4]), the MIC came to 3.33 µM (≈ 1.29 µg/mL).

Consider `COc1ccc(C#Cc2cc(C(=O)O)cs2)cc1C12CC3CC(CC(C3)C1)C2` [Compound 7], for which the MIC in experiment [1] (setting [5]) worked out at 1.66 µM (≈ 0.652 µg/mL). The “biological activity at RAR receptor” value in experiment [2] is recorded as “RAR receptor agonist type”.

For the molecule `CCCCCCCCCON=C(C(=O)Nc1ccc(C(=O)O)cc1)c1ccc2c(c1)C(C)(C)CCC2(C)C` [Compound 17, 4-[2-Nonyloxyimino-2-(5,5,8,8-tetramethyl-5,6,7,8-tetrahydronaphthalen-2-yl)acetylamino]benzoic acid], the MIC in experiment [1] (setting [4]) was 2.5 µM (≈ 1.3 µg/mL).

For `COc1cccc(-c2ccc(C)cc2)c1C=CC#Cc1ccc(C(=O)O)cc1` [Compound 32, 4-[4-(3-Methoxy-4′-methylbiphenyl-2-yl)but-3-en-1-ynyl]benzoic acid], the MIC in experiment [1] (setting [4]) was 3.33 µM (≈ 1.23 µg/mL). Also, the “biological activity at RAR receptor” value in experiment [2] is “RAR receptor antagonist type”.

As to `COc1cccc(C=CC#Cc2ccc(C(=O)O)cc2)c1-c1ccc(C)cc1` [Compound 3, 4-[4-(6-Methoxy-4′-methylbiphenyl-2-yl)but-3-en-1-ynyl]benzoic acid], in experiment [1] (setting [4]), the MIC came to 1.04 µM (≈ 0.383 µg/mL). Further, in experiment [2], the “biological activity at RAR receptor” value is reported as “RAR receptor antagonist type”.

For the molecule `CC1(C)CCSc2ccc(-c3cc(-c4ccc(C(=O)O)cc4)ccc3-c3ccccc3)cc21` [Compound 13, 2′-(4,4-Dimethylthiochroman-6-yl) [1,1′,4′,1″]terphenyl-4″-carboxylic acid], the MIC in experiment [1] (setting [5]) amounted to 2.08 µM (≈ 0.937 µg/mL). The “biological activity at RAR receptor” value in experiment [2] is recorded as “RAR receptor agonist type”.

`Cc1cc(O)c(C23CC4CC(CC(C4)C2)C3)cc1-c1ccc2cc(C(=O)O)ccc2c1` [Compound 4, 6-[2-Methyl-4-hydroxy-5-(1-adamantyl)phenyl]-2-naphthoic acid]: in experiment [1] (setting [4]), the minimal inhibitory concentration (MIC) came out at 1.25 µM (≈ 0.516 µg/mL).

Take `COc1ccc(-c2ccc3cc(C(=O)NCCN(C)C)ccc3c2)cc1C12CC3CC(CC(C3)C1)C2` [Compound 41, (2-Dimethylaminoethyl)amide of 6-(3-adamantan-1-yl-4-methoxyphenyl)naphthalene-2-carboxylic acid]: the MIC in experiment [1] (setting [5]) was found to be 5.00 µM (≈ 2.41 µg/mL).

Regarding `Cc1ccc(-c2c(C)cccc2C=CC#Cc2ccc(C(=O)O)cc2)cc1` [Compound 12, 4-[4-(6,4′-Dimethylbiphenyl-2-yl)but-3-en-1-ynyl]benzoic acid], the MIC in experiment [1] (setting [4]) was 2.08 µM (≈ 0.733 µg/mL).

With `CC1(C)CCC(C)(C)c2cc3cc(-c4ccc(C(=O)O)c(O)c4)ccc3cc21` [Compound 28, 2-Hydroxy-4-(5,5,8,8-tetramethyl-5,6,7,8-tetrahydroanthracen-2-yl)benzoic acid], in experiment [1] (setting [4]), the MIC was determined as 3.33 µM (≈ 1.25 µg/mL).

On to `CCCCOC(c1ccc2c(c1)C(C)(C)CCC2(C)C)c1ccc2cc(C(=O)O)ccc2c1` (stereo not shown) [Compound 24, 6-[Butoxy-(5,5,8,8-tetramethyl-5,6,7,8-tetrahydronaphthalen-2-yl)methyl]naphthalene-2-carboxylic acid], for which the minimal inhibitory concentration (MIC) in experiment [1] (setting [4]) turned out to be 3.33 µM (≈ 1.48 µg/mL).

For the molecule `CC1(C)CCC(C)(C)c2cc(-c3cc(-c4ccc(C(=O)O)cc4)ccc3-c3cccc(O)c3)ccc21` [Compound 44, 3-Hydroxy-2′-(5,5,8,8-tetramethyl-5,6,7,8-tetrahydronaphthalen-2-yl) [1,1′,4′,1″]terphenyl-4″-carboxylic acid], the MIC in experiment [1] (setting [5]) is recorded as 5.00 µM (≈ 2.38 µg/mL).

With `COc1cc(C)c(-c2cccc(C=CC(=O)O)c2)cc1C12CC3CC(CC(C3)C1)C2` [Compound 45, 3-(5′-Adamantan-1-yl-4′-methoxy-2′-methylbiphenyl-3-yl)acrylic acid], the MIC in experiment [1] (setting [4]) was 5 µM (≈ 2.01 µg/mL).

`Cc1ccc(-c2ccc(C)cc2C=CC#Cc2ccc(C(=O)O)cc2)cc1` [Compound 8, 4-[4-(4,4′-Dimethylbiphenyl-2-yl)but-3-en-1-ynyl]benzoic acid]: in experiment [1] (setting [4]), the MIC amounted to 1.66 µM (≈ 0.585 µg/mL).

For the molecule `COCOc1cc2c(cc1-c1cc(-c3ccc(C(=O)O)cc3)ccc1-c1ccccc1)C(C)(C)CCC2(C)C` [Compound 43, 2′-(3-Methoxymethoxy-5,5,8,8-tetramethyl-5,6,7,8-tetrahydronaphthalen-2-yl) [1,1′,4′,1″]terphenyl-4″-carboxylic acid], the minimum inhibitory concentration (MIC) in experiment [1] (setting [5]) came out at 5.00 µM (≈ 2.6 µg/mL).

In the case of `CCCCCCCON=C(C(=O)Nc1ccc(C(=O)O)cc1)c1ccc2c(c1)C(C)(C)CCC2(C)C` [Compound 39, 4-[2-Heptyloxyimino-2-(5,5,8,8-tetramethyl-5,6,7,8-tetrahydronaphthalen-2-yl)acetylamino]-benzoic acid], in experiment [1] (setting [4]), the MIC was found to be 5 µM (≈ 2.46 µg/mL).

Consider `Cc1cc2c(cc1[Se]C#Cc1ccc(C(=O)O)c(O)c1)C(C)(C)CCC2(C)C` [Compound 22, 2-Hydroxy-4-(3,5,5,8,8-pentamethyl-5,6,7,8-tetrahydronaphthalen-2-ylselanylethynyl)benzoic acid], for which the MIC in experiment [1] (setting [3]) worked out at 2.5 µM (≈ 1.1 µg/mL).

Take `CCCCCCCCCC(C)(C)c1cc(C(=O)Nc2ccc(C(=O)O)cc2)ccc1OC` [Compound 25, 4-[3-(1,1-Dimethyldecyl)-4-methoxybenzoylamino]-benzoic acid]: the MIC in experiment [1] (setting [4]) was determined as 3.33 µM (≈ 1.46 µg/mL).

On to `CCCCCCCC/C=C(\C(=O)Nc1ccc(C(=O)O)cc1)c1ccc2c(c1)C(C)(C)CCC2(C)C` [Compound 36, 4-[(Z)-2-(5,6,7,8-tetrahydro-5,5,8,8-tetramethyl-2-naphthyl)-2-undecenamido]benzoic acid], for which the MIC in experiment [1] (setting [4]) came to 4.16 µM (≈ 2.04 µg/mL).

On to `Cc1cc2c(cc1[Se]C#Cc1ccc(C(=O)O)cc1)C(C)(C)CCC2(C)C` [Compound 33, 4-(3,5,5,8,8-Pentamethyl-5,6,7,8-tetrahydronaphthalen-2-ylselanylethynyl)benzoic acid], for which the MIC in experiment [1] (setting [3]) was found to be 3.33 µM (≈ 1.42 µg/mL).
